Assay results: patent US8492346B2, “Methods of use of epsilon inhibitor compounds for the attenuation of pain” (KAI Pharmaceuticals, Inc., priority 2007, dated 2013)
Entries after “also recorded” stand apart in the source; their conditions may differ. Marks after values point to notes of the source that are not given here.

What was measured:
[1] = tested on: spared nerve pain; assay: Single spared nerve model; assay type: in vivo; details: preliminary, doses similar to carrageenan model
Source text: (§1) While experiments with these models are continuing, additional work is being done in other pain models.

[2] = tested on: carrageenan-induced mechanical hyperalgesia; assay: Carrageenan inflammatory pain model, Randall-Selitto paw-withdrawal test; assay type: in vivo, rat; details: for Mechanical hyperalgesia (PWT): FIG. 18
Description: (§2) The nociceptive flexior reflex was quantified on lightly restrained rats by using a Basile Analgesymeter (Randall-Selitto test). Inflammatory hyperlagesia was induced by injection of Carr (1%, 5 uL, i.d.), which was injected unilaterally to the dorsum of the hindpaw one-hour prior to compound administration. The εPKC inhibitor peptide (εV1-2) was injected via systemic routes.
as §2, with “μL,” for “uL,”, “one-hr” for “one-hour”
The rat carrageenan model has been extensively used to evaluate the response to modulators of inflammatory pain. In the model used for the studies described below, a single 5 microL injection of a 1% solution of carrageenan into the plantar surface of the right hindpaw was used to elicit an inflammatory response resulting in local edema and mechanical hyperalgesia. The mechanical hyperalgesia was quantitated as previously described using measurements of the nociceptive flexion reflex (Randall-Selitto paw-withdrawal test) in response to mechanical painful stimulation at the site of carrageenan injection. […] In the absence of further treatment, the PWT remained stable at ˜55 g for several hours, making it possible to use this model to evaluate the time-course of the response to treatment over the course of at least six hours after the establishment of the disease state.

[3] = tested on: L5 nerve transection-induced allodynia and hyperalgesia; assay: Chung (L5 spinal nerve transection) neuropathic pain model; assay type: in vivo, rat
Source text: The Chung (L5 nerve transection) is a well-known model for chronic (neuropathic) pain. […]
The activity of KAI-1678 has been evaluated in the L5 transection model or modified Chung model, is a mononeuropathic pain model in which the L5 spinal nerve is surgically transected, resulting in rapid development of sustained pain. The activity of KAI-1678 in this model is described below.
The rat L5 spinal nerve transection model has been used to evaluate the response to modulators of neuropathic pain. In the studies described below surgical transaction of the L5 spinal nerve was used to elicit mechanical allodynia, mechanical hyperalgesia and thermal hyperalgesia that characterize neuropathic pain. In this model, the neuropathic effects develop within a day and are reported to last for 1-2 months.
Mechanical allodynia and mechanical hyperalgesia are measured using calibrated von Frey filaments to elicit a flexion withdrawal response (paw withdrawal response) by pressing them against the plantar surface of the hindpaw on the same side as the nerve transection. The 2 g, 6 g and 10 g von Frey filaments are used to assess allodynia since these stimuli are normally innocuous to naïve animals. The 15 g, 26 g and 60 g filaments are used to assess algesia (response to noxious stimulus) since these stimuli elicit paw withdrawals in naïve animals and are considered to represent painful stimuli.
The existence of the disease state following nerve transection is confirmed based on tests performed with the 2 g and the 10 g filaments.
Once the disease state is confirmed, evaluation of the extent of mechanical allodynia or hyperalgesia is determined by observing the number of paw withdrawals in responsse to 5 tests with each of the von Frey filaments. Results are typically expressed either as the total number of paw withdrawals for the allodynic filaments (2 g, 6 g and 10 g for a total of 15 tests) or the algesic filaments (15 g, 26 g and 60 g for a total of 15 tests), or as the lowest filament to which the animals in a group have an average positive response defined as ≧3 withdrawals out of 5 tests with a particular filament. […]
Rats given an L5 spinal nerve transection were treated with a bolus subcutaneous dose of KAI-1678 ranging from 0.00025-0.25 mcg/rat (˜0.001-1 mcg/kg) on day 7 post-transection. The degree of mechanical allodynia and hyperalgesia was evaluated based on the number of paw withdrawals (out of 30) in response to 6 different von Frey filaments before and up to 3 hours after administration of the compound.

[4] = tested on: incision pain; assay: Brennan incision model; assay type: in vivo; details: preliminary, doses similar to carrageenan model
Source text: as §1

[5] = Dog toxicokinetics and tissue levels, 5-day subcutaneous infusion; details: for Tissue level, Dose Site Muscle, Mean / Tissue level, Dose Site Skin, Mean / Tissue level, Kidney, Mean / Tissue level, Liver, Mean / Tissue level, Lung, Mean / Tissue level, Peripheral Nerve, Mean / Tissue level, Skeletal Muscle, Mean / Tissue level, Spinal Cord, Mean / Tissue level, Brain, Mean: 25 mg/kg/day sc infusion five days
Source text: The pharmacokinetics of KAI-1678 are being studied in rats administered the compound as an intravenous bolus and infusion or as a subcutaneous bolus and infusion. The toxicokinetics of KAI-1678 are being studied in dogs administered the compound as a subcutaneous infusion as part of the toxicity studies. In these studies, plasma levels of KAI-1678 have been determined using a sandwich-based ELISA assay developed at KAI Pharmaceuticals. The lower limit of quantitation of this assay is approximately 0.3 ng/mL. A similar assay has been developed to measure tissue levels of KAI-1678.
As part of a range-finding toxicology study, 6 beagle dogs (one per sex per group) were administered continuous subcutaneous infusions of KAI-1678 for 5 days at dose levels of 3, 8 and 25 mg/kg/day. Blood samples were collected at various times on Day 1 (start of infusion) and Day 6 (after the end of infusion).
As part of this study, tissues were harvested from a subset of the animals at the end of dosing.

[6] = Rat pharmacokinetics, plasma levels by sandwich-based ELISA; assay type: in vivo
[7] = subcutaneous bolus 0.1 and 1 mcg/kg

Substance: Ac-EAVSLKPTGGYGRKKRRQRRR-NH2 [KAI-1678]
- Activity in single spared nerve model [1]: also active in these models
- Ability to reverse mechanical hyperalgesia in sympathectomized animals ([2]; 25 mcg/kg/hr subcutaneous infusion, contralateral hindlimb, FIG. 24): abrogated
- Carrageenan-induced mechanical hyperalgesia after sciatic and saphenous nerve transection ([2]; 25 mcg/kg/hr subcutaneous infusion, contralateral limb, proximal or distal to transection, FIG. 23): effective at eliminating carrageenan-induced mechanical hyperalgesia when the site of compound administration was proximal, but not distal, to the site of nerve transection
- Carrageenan-induced mechanical hyperalgesia ([2]; IV infusion, rates as high as 1000 mcg/kg/hr for as long as 5 hours, FIG. 22): had no effect on carrageenan-induced mechanical hyperalgesia
- Mechanical hyperalgesia (PWT) ([2]; intradermal 10 mcg/kg, ipsilateral hindpaw): completely reverse the mechanical hyperalgesia
- Mechanical hyperalgesia (PWT) ([2]; intradermal 10 or 100 mcg/kg, contralateral hindpaw): completely reverse the mechanical hyperalgesia
- Time to complete reversal of mechanical hyperalgesia ([2]; intradermal 100 mcg/kg, ipsilateral): ≤ 5 min
- Mechanical hyperalgesia (PWT) ([2]; intradermal 100 mcg/kg, ipsilateral hindpaw): increasing the PWT beyond the pre-carrageenan levels
- Lowest dose completely reversing mechanical hyperalgesia ([2]; subcutaneous bolus, contralateral hindlimb, for a short period): 0.1 µg/kg
- Pain response (mechanical hyperalgesia) ([2]; subcutaneous bolus, thigh of contralateral hindlimb, FIG. 19): dose-dependent suppression in the pain response
- Reversal of pain ([2]; subcutaneous infusion 250 mcg/kg/hr): rapid and sustained without any recurrence of hyperalgesia
- Effect on mechanical hyperalgesia ([2]; subcutaneous infusion 25,000 mcg/kg/hr, data not shown): comparable to that seen with the 250 mcg/kg/hr infusion
- Mechanical hyperalgesia, first phase of subcutaneous infusion ([2]; subcutaneous infusion, first phase approximately one hour, FIG. 21): rapid and complete reversal of the mechanical hyperalgesia at all doses tested
- Dose rate completely reversing mechanical hyperalgesia in second phase ([2]; subcutaneous infusion, second phase two to three hours after start): ≥ 25 µg/kg/h
- Mechanical allodynia, 10 g filament ([3]; minipump 0.025 and 0.25 mcg/day, lasted until Day 7 post-pump implantation): nearly complete reversal of mechanical allodynia
- Duration of anti-hyperalgesic effect [3, 7]: at least 2 hours
- Mechanical hyperalgesia, 15 g, 26 g and 60 g von Frey filaments [3, 7]: completely reverses mechanical hyperalgesia
- Doses giving dose-dependent decrease in mechanical allodynia and mechanical hyperalgesia ([3]; subcutaneous bolus, day 7 post-transection, FIG. 25): ≥ 0.01 µg/kg
- Potency relative to carrageenan-induced inflammatory pain model ([3]; subcutaneous infusion): about 1000 fold
- Dose rates substantially reducing mechanical allodynia ([3]; subcutaneous osmotic minipump, 10 g filament, FIG. 26): ≥ 0.0025 µg/day
- Activity in Brennan incision model [4]: also active in these models
- Tissue level, Dose Site Muscle, Mean ([5]; Animal 4001, male): 111 ng KAI-1678/g tissue
- Tissue level, Dose Site Skin, Mean ([5]; Animal 4001, male): 1139 ng KAI-1678/g tissue
- Tissue level, Kidney, Mean ([5]; Animal 4001, male): 689 ng KAI-1678/g tissue
- Tissue level, Liver, Mean ([5]; Animal 4001, male): 224 ng KAI-1678/g tissue
- Tissue level, Lung, Mean ([5]; Animal 4001, male): 254 ng KAI-1678/g tissue
- Tissue level, Peripheral Nerve, Mean ([5]; Animal 4001, male): 429 ng KAI-1678/g tissue
- Tissue level, Skeletal Muscle, Mean ([5]; Animal 4001, male): 133 ng KAI-1678/g tissue
- Tissue level, Spinal Cord, Mean ([5]; Animal 4001, male): 11 ng KAI-1678/g tissue
- Tissue level, Brain, Mean ([5]; Animal 4001, male, includes a data point below limit of quantitation): 6* ng KAI-1678/g tissue
- Tissue level, Brain, Mean ([5]; Animal 4501, female): 7 ng KAI-1678/g tissue
- Tissue level, Dose Site Muscle, Mean ([5]; Animal 4501, female): 1003 ng KAI-1678/g tissue
- Tissue level, Dose Site Skin, Mean ([5]; Animal 4501, female): 6165 ng KAI-1678/g tissue
- Tissue level, Kidney, Mean ([5]; Animal 4501, female): 3054 ng KAI-1678/g tissue
- Tissue level, Liver, Mean ([5]; Animal 4501, female): 1505 ng KAI-1678/g tissue
- Tissue level, Lung, Mean ([5]; Animal 4501, female): 1364 ng KAI-1678/g tissue
- Tissue level, Peripheral Nerve, Mean ([5]; Animal 4501, female): 155 ng KAI-1678/g tissue
- Tissue level, Skeletal Muscle, Mean ([5]; Animal 4501, female): 33 ng KAI-1678/g tissue
- Tissue level, Spinal Cord, Mean ([5]; Animal 4501, female): 140 ng KAI-1678/g tissue
- Clearance from systemic circulation / plasma level after end of infusion ([5]; subcutaneous infusion over 5 days, 3, 8 and 25 mg/kg/day): rapidly cleared from the systemic circulation; also recorded: declined quickly upon cessation of infusion
- Levels in brain and spinal cord ([5]; subcutaneous infusion over 5 days, end of infusion): consistently low
- Steady state plasma concentration ([6]; 2-hr intravenous infusion at 50 mcg/kg/hr): 10 to 20 ng/mL
- half-life ([6]; rat, in vivo, iv, intravenous infusion, read-out: Terminal half-life): ~25 min
